# Laboratory results: patent US20060069132A1, “Azolecarboxamide herbicides” (priority 2004, published 2006)
# Experiments:
# velvetleaf [1] = experiment: Test B pre-/postemergence herbicide test; assay type: in vivo, Abutilon theophrasti
# In short: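 Test chemicals in a non-phytotoxic solvent mixture with surfactant were applied preemergence to seeded species and postemergence to plants 2-18 cm tall (1- to 4-leaf stage); rice and barnyardgrass were also tested in a flooded paddy at the 2-leaf stage. Visual rating versus controls after 13-15 days in greenhouse, scale 0 (no effect) to 100 (complete control).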
# Surinam grass = experiment: Test C pre-/postemergence herbicide test; assay type: in vivo, Urochloa decumbens; conditions: for Plant response rating, Surinam Grass / Plant response rating (0 = no effect, 100 = complete control), Surinam Grass: preemergence
# In short: (§1)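 Greenhouse-grown plants were evaluated visually 12 to 14 days after treatment, with 100 meaning complete control and 0 no effect. Application was preemergence, or postemergence at 2 to 18 cm.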
# corn = experiment: Test C pre-/postemergence herbicide test; assay type: in vivo, Zea mays; conditions: for Plant response rating, Corn / Plant response rating (0 = no effect, 100 = complete control), Corn: preemergence
# In short: as §1
# kochia = experiment: Test C pre-/postemergence herbicide test; assay type: in vivo, Kochia scoparia; conditions: for Plant response rating, Kochia / Plant response rating (0 = no effect, 100 = complete control), Kochia: preemergence
# In short: as §1
# morningglory = experiment: Test C pre-/postemergence herbicide test; assay type: in vivo, Ipomoea coccinea; design: key to Plant response rating, Morningglory: 0 = no effect, 100 = complete control; conditions: for Plant response rating, Morningglory / Plant response rating (0 = no effect, 100 = complete control), Morningglory: preemergence
# In short: as §1
# velvetleaf [2] = experiment: Test C pre-/postemergence herbicide test; assay type: in vivo, Abutilon theophrasti; conditions: for Plant response rating, Velvetleaf / Plant response rating (0 = no effect, 100 = complete control), Velvetleaf: preemergence
# In short: as §1
# [3] = test system: smallflower umbrella sedge; experiment: Test C flooded paddy test; assay type: in vivo, Cyperus difformis; conditions: for Plant response rating, Sedge, Umbrella: 500 g ai/ha, visual rating after 12 to 14 days
# [4] = 125 g ai/ha, 0 is no effect, 100 is complete control, preemergence
# [5] = 125 g ai/ha, visual rating, scale 0 (no effect) to 100 (complete control), postemergence
# [6] = 500 g ai/ha, scale 0 to 100 (0 no effect, 100 complete control), visual, 12 to 14 days
# [7] = 125 g ai/ha, scale 0 to 100 (0 no effect, 100 complete control)
# [8] = 250 g ai/ha, scale of 0 to 100, 0 is no effect, 100 is complete control
# [9] = scale 0 to 100 (0 no effect, 100 complete control)
# [10] = 125 g ai/ha, scale 0 (no effect) to 100 (complete control), visual, 12 to 14 days
# [11] = 250 g ai/ha, scale 0 to 100 (0 no effect, 100 complete control), visual, 12 to 14 days
# [12] = Preemergence, 500 g ai/ha, scale 0 to 100, 0 no effect, 100 complete control
# [13] = postemergence, 500 g ai/ha, scale 0 to 100, 0 is no effect, 100 is complete control
# [14] = 500 g ai/ha, visual rating, 0 = no effect, 100 = complete control, preemergence
smiles,measurement,setting,value
CCNC(=O)c1cccc(NC(=O)c2nn(C(C)(C)C)nc2C)c1 [Compound 392],"Plant response rating (0 to 100 scale), Velvetleaf",velvetleaf [1]; [4],70
same,Velvetleaf plant response rating,velvetleaf [1]; [5],30
same,Velvetleaf plant response rating,"velvetleaf [1]; Postemergence, 500 g ai/ha, scale 0 (no effect) to 100 (complete control)",40
same,"Plant response rating, Surinam Grass","Surinam grass; 62 g ai/ha, scale 0 to 100",50
same,"Plant response rating (0 = no effect, 100 = complete control), Surinam Grass",Surinam grass; 125 g ai/ha,85
same,"Plant response rating, Surinam Grass","Surinam grass; 250 g ai/ha, scale 0-100",85
same,"Plant response rating, Surinam Grass",Surinam grass; [6],90
same,"Plant response rating, Corn","corn; 62 g ai/ha, scale 0 to 100",30
same,"Plant response rating (0 = no effect, 100 = complete control), Corn",corn; 125 g ai/ha,50
same,"Plant response rating, Corn","corn; 250 g ai/ha, scale 0-100",80
same,"Plant response rating, Corn",corn; [6],90
same,"Plant response rating, Kochia","kochia; 62 g ai/ha, scale 0 to 100",75
same,"Plant response rating (0 = no effect, 100 = complete control), Kochia",kochia; 125 g ai/ha,80
same,"Plant response rating, Kochia","kochia; 250 g ai/ha, scale 0-100",100
same,"Plant response rating, Kochia",kochia; [6],100
same,"Plant response rating, Morningglory","morningglory; 62 g ai/ha, scale 0 to 100",70
same,"Plant response rating (0 = no effect, 100 = complete control), Morningglory",morningglory; 125 g ai/ha,95
same,"Plant response rating, Morningglory","morningglory; 250 g ai/ha, scale 0-100",100
same,"Plant response rating, Morningglory",morningglory; [6],100
same,"Plant response rating, Velvetleaf","velvetleaf [2]; 62 g ai/ha, scale 0 to 100",70
same,"Plant response rating (0 = no effect, 100 = complete control), Velvetleaf",velvetleaf [2]; 125 g ai/ha,100
same,"Plant response rating, Velvetleaf","velvetleaf [2]; 250 g ai/ha, scale 0-100",100
same,"Plant response rating, Velvetleaf",velvetleaf [2]; [6],100
same,"Sedge, Umbrella plant response rating","[3]; 62 g ai/ha, scale 0 to 100",70
same,"Sedge, Umbrella plant response rating",[3]; [7],75
same,"Sedge, Umbrella plant response rating",[3]; [8],85
same,"Plant response rating, Sedge, Umbrella",[3]; [9],85
CCN(C)C(=O)c1cccc(NC(=O)c2cc(C(C)(C)C)nn2CC)c1 [Compound 48],"Plant response rating, Velvetleaf","velvetleaf [1]; Postemergence, 500 g ai/ha, visual rating after 13 to 15 days, scale 0 (no effect) to 100 (complete control)",80
same,Velvetleaf plant response rating,"velvetleaf [1]; Preemergence, 500 g ai/ha, scale 0 to 100",100
same,"Plant response rating, Velvetleaf","velvetleaf [1]; preemergence, 125 g ai/ha, 0 to 100 scale, 0 is no effect, 100 is complete control",90
same,"Plant response rating (0 = no effect, 100 = complete control), Surinam Grass",Surinam grass; 62 g ai/ha,0
same,"Plant response rating, Surinam Grass",Surinam grass; [10],5
same,"Plant response rating, Surinam Grass",Surinam grass; [11],30
same,Surinam Grass plant response rating,Surinam grass; [12],60
same,"Plant response rating (0 = no effect, 100 = complete control), Corn",corn; 62 g ai/ha,0
same,"Plant response rating, Corn",corn; [10],0
same,"Plant response rating, Corn",corn; [11],0
same,Corn plant response rating,corn; [12],0
same,"Plant response rating (0 = no effect, 100 = complete control), Kochia",kochia; 62 g ai/ha,10
same,"Plant response rating, Kochia",kochia; [10],60
same,"Plant response rating, Kochia",kochia; [11],80
same,Kochia plant response rating,kochia; [12],100
same,"Plant response rating (0 = no effect, 100 = complete control), Morningglory",morningglory; 62 g ai/ha,0
same,"Plant response rating, Morningglory",morningglory; [11],0
same,Morningglory plant response rating,morningglory; [12],20
same,"Plant response rating (0 = no effect, 100 = complete control), Velvetleaf",velvetleaf [2]; 62 g ai/ha,0
same,"Plant response rating, Velvetleaf",velvetleaf [2]; [10],0
same,"Plant response rating, Velvetleaf",velvetleaf [2]; [11],10
same,Velvetleaf plant response rating,velvetleaf [2]; [12],70
same,"Sedge, Umbrella plant response rating","[3]; 16 g ai/ha, scale 0 to 100",0
same,"Sedge, Umbrella plant response rating","[3]; 31 g ai/ha, scale 0 to 100",0
same,"Sedge, Umbrella plant response rating","[3]; 62 g ai/ha, scale 0 to 100 (0 no effect, 100 complete control)",60
same,"Sedge, Umbrella plant response rating","[3]; 125 g ai/ha, scale of 0 to 100, 0 is no effect, 100 is complete control",60
CCC1=NN(C(C)(C)C)CC1C(=O)Nc1cc(C(=O)N(C)C)ccc1F (racemic) [Compound 343],"Plant response rating (0 to 100 scale), Velvetleaf",velvetleaf [1]; [4],100
same,Velvetleaf plant response rating,velvetleaf [1]; [5],20
same,Velvetleaf plant response rating,velvetleaf [1]; [13],50
same,"Plant response rating, Surinam Grass","Surinam grass; 62 g ai/ha, scale 0 to 100",60
same,"Plant response rating (0 = no effect, 100 = complete control), Surinam Grass",Surinam grass; 125 g ai/ha,85
same,"Plant response rating, Surinam Grass","Surinam grass; 250 g ai/ha, scale 0-100",100
same,"Plant response rating, Surinam Grass",Surinam grass; [6],100
same,"Plant response rating, Corn","corn; 62 g ai/ha, scale 0 to 100",40
same,"Plant response rating (0 = no effect, 100 = complete control), Corn",corn; 125 g ai/ha,70
same,"Plant response rating, Corn","corn; 250 g ai/ha, scale 0-100",70
same,"Plant response rating, Corn",corn; [6],80
same,"Plant response rating, Kochia","kochia; 62 g ai/ha, scale 0 to 100",90
same,"Plant response rating (0 = no effect, 100 = complete control), Kochia",kochia; 125 g ai/ha,100
same,"Plant response rating, Kochia","kochia; 250 g ai/ha, scale 0-100",100
same,"Plant response rating, Kochia",kochia; [6],100
same,"Plant response rating, Morningglory","morningglory; 62 g ai/ha, scale 0 to 100",5
same,"Plant response rating (0 = no effect, 100 = complete control), Morningglory",morningglory; 125 g ai/ha,60
same,"Plant response rating, Morningglory","morningglory; 250 g ai/ha, scale 0-100",100
same,"Plant response rating, Morningglory",morningglory; [6],100
same,"Plant response rating, Velvetleaf","velvetleaf [2]; 62 g ai/ha, scale 0 to 100",60
same,"Plant response rating (0 = no effect, 100 = complete control), Velvetleaf",velvetleaf [2]; 125 g ai/ha,80
same,"Plant response rating, Velvetleaf","velvetleaf [2]; 250 g ai/ha, scale 0-100",100
same,"Plant response rating, Velvetleaf",velvetleaf [2]; [6],100
same,"Sedge, Umbrella plant response rating","[3]; 62 g ai/ha, scale 0 to 100",20
same,"Sedge, Umbrella plant response rating",[3]; [7],40
same,"Sedge, Umbrella plant response rating",[3]; [8],80
same,"Plant response rating, Sedge, Umbrella",[3]; [9],90
CCn1nc(C(C)(C)C)cc1C(=O)Nc1cc(C(=S)N(C)C)ccc1F [Compound 294],Velvetleaf plant response rating,velvetleaf [1]; [5],40
same,"Plant response rating, Velvetleaf",velvetleaf [1]; [14],100
same,Velvetleaf plant response rating,velvetleaf [1]; [13],80
same,"Plant response rating, Surinam Grass","Surinam grass; 62 g ai/ha, scale 0 to 100",85
same,"Plant response rating, Surinam Grass","Surinam grass; 250 g ai/ha, scale 0-100",100
same,"Plant response rating, Surinam Grass",Surinam grass; [6],100
same,"Plant response rating, Corn","corn; 62 g ai/ha, scale 0 to 100",55
same,"Plant response rating, Corn",corn; [10],60
same,"Plant response rating, Corn","corn; 250 g ai/ha, scale 0-100",60
same,"Plant response rating, Corn",corn; [6],80
same,"Plant response rating, Kochia","kochia; 62 g ai/ha, scale 0 to 100",100
same,"Plant response rating, Kochia",kochia; [10],100
same,"Plant response rating, Kochia","kochia; 250 g ai/ha, scale 0-100",100
same,"Plant response rating, Kochia",kochia; [6],100
same,"Plant response rating, Morningglory","morningglory; 62 g ai/ha, scale 0 to 100",30
same,"Plant response rating, Morningglory",morningglory; [10],30
same,"Plant response rating, Morningglory","morningglory; 250 g ai/ha, scale 0-100",50
same,"Plant response rating, Morningglory",morningglory; [6],50
same,"Plant response rating, Velvetleaf","velvetleaf [2]; 62 g ai/ha, scale 0 to 100",100
same,"Plant response rating, Velvetleaf","velvetleaf [2]; 250 g ai/ha, scale 0-100",100
same,"Plant response rating, Velvetleaf",velvetleaf [2]; [6],100
same,"Sedge, Umbrella plant response rating","[3]; 62 g ai/ha, scale 0 to 100",80
same,"Sedge, Umbrella plant response rating",[3]; [7],85
same,"Sedge, Umbrella plant response rating",[3]; [8],90
same,"Plant response rating, Sedge, Umbrella",[3]; [9],90
CCn1nc(C(C)(C)C)cc1C(=S)Nc1cc(C(=S)N(C)C)ccc1F [Compound 305],Velvetleaf plant response rating,velvetleaf [1]; [5],20
same,"Plant response rating, Velvetleaf",velvetleaf [1]; [14],100
same,Velvetleaf plant response rating,velvetleaf [1]; [13],20
same,"Plant response rating, Surinam Grass","Surinam grass; 62 g ai/ha, scale 0 to 100",50
same,"Plant response rating, Surinam Grass","Surinam grass; 250 g ai/ha, scale 0-100",60
same,"Plant response rating, Surinam Grass",Surinam grass; [6],60
same,"Plant response rating, Corn","corn; 62 g ai/ha, scale 0 to 100",0
same,"Plant response rating, Corn",corn; [10],40
same,"Plant response rating, Corn","corn; 250 g ai/ha, scale 0-100",45
same,"Plant response rating, Corn",corn; [6],45
same,"Plant response rating, Kochia","kochia; 62 g ai/ha, scale 0 to 100",100
same,"Plant response rating, Kochia",kochia; [10],100
same,"Plant response rating, Kochia","kochia; 250 g ai/ha, scale 0-100",100
same,"Plant response rating, Kochia",kochia; [6],100
same,"Plant response rating, Morningglory","morningglory; 62 g ai/ha, scale 0 to 100",0
same,"Plant response rating, Morningglory",morningglory; [10],0
same,"Plant response rating, Morningglory","morningglory; 250 g ai/ha, scale 0-100",5
same,"Plant response rating, Morningglory",morningglory; [6],10
same,"Plant response rating, Velvetleaf","velvetleaf [2]; 62 g ai/ha, scale 0 to 100",40
same,"Plant response rating, Velvetleaf","velvetleaf [2]; 250 g ai/ha, scale 0-100",100
same,"Plant response rating, Velvetleaf",velvetleaf [2]; [6],100
same,"Sedge, Umbrella plant response rating","[3]; 62 g ai/ha, scale 0 to 100",85
same,"Sedge, Umbrella plant response rating",[3]; [7],90
same,"Sedge, Umbrella plant response rating",[3]; [8],90
same,"Plant response rating, Sedge, Umbrella",[3]; [9],90
